Experimental data: EP3057951B1, “METHYLENE LINKED QUINOLINYL MODULATORS OF ROR-GAMMA-T” (Janssen Pharmaceutica NV, priority 2013, dated 2015)
Counter-ions that a name gives are not always drawn. Like-named read-outs stand apart in the source and are kept apart here.

Target: T1, wild type human RORγt LBD (Homo sapiens, UniProt P51449)
T1 construct: expressed in transfected cells; host or cells: HEK293T
T1 sequence (P51449 258-518): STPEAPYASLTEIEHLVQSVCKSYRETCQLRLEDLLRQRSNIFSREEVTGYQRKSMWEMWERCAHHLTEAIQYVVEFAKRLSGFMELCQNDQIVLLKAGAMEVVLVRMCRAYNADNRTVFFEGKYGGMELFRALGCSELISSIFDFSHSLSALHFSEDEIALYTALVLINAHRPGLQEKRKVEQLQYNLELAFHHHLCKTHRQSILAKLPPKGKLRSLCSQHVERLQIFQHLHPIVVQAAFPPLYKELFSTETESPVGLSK
Experiment: RORγt (LBD) Reporter Assay (GAL4-luciferase, HEK293T cells)
Assay type: cell-based
Settings: for RORγt (LBD) Reporter Assay, % inhibition @ 6 µM: 6 µM compound concentration; for inhibition at 6 µM: HEK-293T, read-out: RORγt (LBD) Reporter Assay, % inhibition @ 6 µM, 6 µM compound concentration

## CC(=O)N1CCC(C(O)(c2ccc3nc(C(F)(F)F)c(Cc4ccccc4)c(Cl)c3c2)c2cncn2C)CC1 (single isomer, unassigned) [Example 115c, 1-(4-((3-Benzyl-4-chloro-2-(trifluoromethyl)quinolin-6-yl)(hydroxy)(1-methyl-1H-imidazol-5-yl)methyl)piperidin-1-yl)ethanone•TFA]
HEK293T cells
  RORγt (LBD) Reporter Assay, % inhibition @ 6 µM: 70%

## COc1nc2ccc(C(O)(c3ccccn3)c3cncn3C)cc2c(Cl)c1Cc1ccc(-n2cccn2)cc1 (single isomer, unassigned) [Example 64b, (3-(4-(1H-Pyrazol-1-yl)benzyl)-4-chloro-2-methoxyquinolin-6-yl)(1-methyl-1H-imidazol-5-yl)(pyridin-2-yl)methanol]
  inhibition at 6 µM: 103%

## COc1c(Cc2ccccc2)c(C(F)(F)F)nc2ccc(C(O)(c3ccc(Cl)cc3)c3cncn3C)cc12 (single isomer, unassigned) [Example 101b]
  inhibition at 6 µM: 62%

## COc1nc2ccc(C(O)(c3oc(C)nc3C)c3cnnn3C)cc2c(Cl)c1Cc1ccc(C(F)(F)F)cc1 (single isomer, unassigned) [Example 156b, (4-chloro-2-methoxy-3-(4-(trifluoromethyl)benzyl)quinolin-6-yl)(2,4-dimethylozazol-5-yl)(1-methyl-1H-1,2,3-triazol-5-yl)methanol]
HEK293T cells
  inhibition at 6 µM: 98%

## COc1nc2ccc(C(O)(c3ccc(C)nc3C)c3cnnn3C)cc2c(Cl)c1Cc1ccc(C(F)(F)F)nc1 (single isomer, unassigned) [Example 40c, (4-Chloro-2-methoxy-3-((6-(trifluoromethyl)pyridin-3-yl)methyl)quinolin-6-yl)(2,6-dimethylpyridin-3-yl)(1-methyl-1H-1,2,3-triazol-5-yl)methanol]
  RORγt (LBD) Reporter Assay, % inhibition @ 6 µM: 94%

## COc1nc2ccc(C(O)(c3cnnn3C)c3cnc(C)n3C)cc2c(Cl)c1Cc1ccc(F)cc1 (single isomer, unassigned) [Example 65c]
  RORγt (LBD) Reporter Assay, % inhibition @ 6 µM: 81%

## COc1nc2ccc(C(O)(c3ccc(C)nc3C)c3cnnn3C)cc2c(Cl)c1Cc1ccc(C(F)(F)F)nc1 (single isomer, unassigned) [Example 40b, (4-Chloro-2-methoxy-3-((6-(trifluoromethyl)pyridin-3-yl)methyl)quinolin-6-yl)(2,6-dimethylpyridin-3-yl)(1-methyl-1H-1,2,3-triazol-5-yl)methanol]
  inhibition at 6 µM: 88%

## COc1c(Cc2ccccc2)c(C(F)(F)F)nc2ccc(C(O)(c3ccc(Cl)cc3)c3cncn3C)cc12 (single isomer, unassigned) [Example 101c]
  inhibition at 6 µM: 89%

## CNC(c1ccc2nc(OC)c(Cc3ccc(C(F)(F)F)cc3)c(Cl)c2c1)(c1ccc(C)nc1C)c1cnnn1C (single isomer, unassigned) [Example 121b, 1-(4-Chloro-2-methoxy-3-(4-(trifluoromethyl)benzyl)quinolin-6-yl)-1-(2,6-dimethylpyridin-3-yl)-N-methyl-1-(1-methyl-1H-1,2,3-triazol-5-yl)methanamine•TFA]
HEK293T cells
  inhibition at 6 µM: 98%

## COc1nc2ccc(C(N)(c3ccc(C(F)(F)F)nc3)c3cncn3C)cc2c(Cl)c1Cc1ccccc1 (single isomer, unassigned) [Example 120c, (3-Benzyl-4-chloro-2-methoxyquinolin-6-yl)(1-methyl-1H-imidazol-5-yl)(6-(trifluoromethyl)pyridin-3-yl)methanamine•TFA]
HEK293T cells
  RORγt (LBD) Reporter Assay, % inhibition @ 6 µM: 66%

## COc1nc2ccc(C(c3ccc(C)nc3C)(c3cnnn3C)N(C)C)cc2c(Cl)c1Cc1ccc(C(F)(F)F)cc1 (single isomer, unassigned) [Example 122c, 1-(4-Chloro-2-methoxy-3-(4-(trifluoromethyl)benzyl)quinolin-6-yl)-1-(2,6-dimethylpyridin-3-yl)-N,N-dimethyl-1-(1-methyl-1H-1,2,3-triazol-5-yl)methanamine•TFA]
HEK293T cells
  RORγt (LBD) Reporter Assay, % inhibition @ 6 µM: 99%
